From US20120129833A1, “CYCLIC KETOENOLS FOR THERAPY” (BAYER PHARMA AKTIENGESELLSCHAFT, priority 2010, published 2012)

Key:
[1] = target: T1, recombinant human ACC1 (acetyl-CoA carboxylase 1) (Homo sapiens, UniProt Q13085); test: Human ACC1 enzyme assay (HTRF ADP detection); type: biochemical; settings: 50 μM ATP, 20 μM acetyl-CoA, 15 min pre-incubation, 20 min at 22° C.; read-out: ACC 1 IC50;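 further: ADP by-product quantified by competitive HTRF immunoassay with europium cryptate anti-ADP antibody and d2-labelled ADP, read after 1 h binding at 22 °C, enzyme near 2.5 ng/µl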
T1 construct: NM_198834, amino acids 39—end; FLAG (C); made in house; host or cells: baculovirus-transfected insect cells (Hi5)
Method: The basic principle of the assay is the measurement of adenosine diphosphate (ADP), which is formed as a by-product, by means of an HTRF®-based competitive immunoassay (HTRF=Homogeneous Time Resolved Fluorescence).
The amount of complex of d2-labelled ADP and europium cryptate-labelled anti-ADP antibody was then determined by measuring the resonance energy transfer of europium cryptate to d2.

[2] = target: T2, ACC2 (acetyl-CoA carboxylase 2) (Homo sapiens, UniProt O00763); test: Human ACC2 enzyme assay (HTRF ADP detection); type: biochemical; settings: 20 μM acetyl-CoA, 15 min pre-incubation, 20 min at 22° C.; read-out: ACC 2 IC50
T2 construct: catalogue no; 50201, amino acids 39—end, expressed in baculovirus-transfected Sf9 insect cells; His (C); purchased BPS Bioscience (San Diego, Calif.) 50201; host or cells: baculovirus-transfected Sf9 insect cells
T2 sequence (O00763 39-2458 limits assumed): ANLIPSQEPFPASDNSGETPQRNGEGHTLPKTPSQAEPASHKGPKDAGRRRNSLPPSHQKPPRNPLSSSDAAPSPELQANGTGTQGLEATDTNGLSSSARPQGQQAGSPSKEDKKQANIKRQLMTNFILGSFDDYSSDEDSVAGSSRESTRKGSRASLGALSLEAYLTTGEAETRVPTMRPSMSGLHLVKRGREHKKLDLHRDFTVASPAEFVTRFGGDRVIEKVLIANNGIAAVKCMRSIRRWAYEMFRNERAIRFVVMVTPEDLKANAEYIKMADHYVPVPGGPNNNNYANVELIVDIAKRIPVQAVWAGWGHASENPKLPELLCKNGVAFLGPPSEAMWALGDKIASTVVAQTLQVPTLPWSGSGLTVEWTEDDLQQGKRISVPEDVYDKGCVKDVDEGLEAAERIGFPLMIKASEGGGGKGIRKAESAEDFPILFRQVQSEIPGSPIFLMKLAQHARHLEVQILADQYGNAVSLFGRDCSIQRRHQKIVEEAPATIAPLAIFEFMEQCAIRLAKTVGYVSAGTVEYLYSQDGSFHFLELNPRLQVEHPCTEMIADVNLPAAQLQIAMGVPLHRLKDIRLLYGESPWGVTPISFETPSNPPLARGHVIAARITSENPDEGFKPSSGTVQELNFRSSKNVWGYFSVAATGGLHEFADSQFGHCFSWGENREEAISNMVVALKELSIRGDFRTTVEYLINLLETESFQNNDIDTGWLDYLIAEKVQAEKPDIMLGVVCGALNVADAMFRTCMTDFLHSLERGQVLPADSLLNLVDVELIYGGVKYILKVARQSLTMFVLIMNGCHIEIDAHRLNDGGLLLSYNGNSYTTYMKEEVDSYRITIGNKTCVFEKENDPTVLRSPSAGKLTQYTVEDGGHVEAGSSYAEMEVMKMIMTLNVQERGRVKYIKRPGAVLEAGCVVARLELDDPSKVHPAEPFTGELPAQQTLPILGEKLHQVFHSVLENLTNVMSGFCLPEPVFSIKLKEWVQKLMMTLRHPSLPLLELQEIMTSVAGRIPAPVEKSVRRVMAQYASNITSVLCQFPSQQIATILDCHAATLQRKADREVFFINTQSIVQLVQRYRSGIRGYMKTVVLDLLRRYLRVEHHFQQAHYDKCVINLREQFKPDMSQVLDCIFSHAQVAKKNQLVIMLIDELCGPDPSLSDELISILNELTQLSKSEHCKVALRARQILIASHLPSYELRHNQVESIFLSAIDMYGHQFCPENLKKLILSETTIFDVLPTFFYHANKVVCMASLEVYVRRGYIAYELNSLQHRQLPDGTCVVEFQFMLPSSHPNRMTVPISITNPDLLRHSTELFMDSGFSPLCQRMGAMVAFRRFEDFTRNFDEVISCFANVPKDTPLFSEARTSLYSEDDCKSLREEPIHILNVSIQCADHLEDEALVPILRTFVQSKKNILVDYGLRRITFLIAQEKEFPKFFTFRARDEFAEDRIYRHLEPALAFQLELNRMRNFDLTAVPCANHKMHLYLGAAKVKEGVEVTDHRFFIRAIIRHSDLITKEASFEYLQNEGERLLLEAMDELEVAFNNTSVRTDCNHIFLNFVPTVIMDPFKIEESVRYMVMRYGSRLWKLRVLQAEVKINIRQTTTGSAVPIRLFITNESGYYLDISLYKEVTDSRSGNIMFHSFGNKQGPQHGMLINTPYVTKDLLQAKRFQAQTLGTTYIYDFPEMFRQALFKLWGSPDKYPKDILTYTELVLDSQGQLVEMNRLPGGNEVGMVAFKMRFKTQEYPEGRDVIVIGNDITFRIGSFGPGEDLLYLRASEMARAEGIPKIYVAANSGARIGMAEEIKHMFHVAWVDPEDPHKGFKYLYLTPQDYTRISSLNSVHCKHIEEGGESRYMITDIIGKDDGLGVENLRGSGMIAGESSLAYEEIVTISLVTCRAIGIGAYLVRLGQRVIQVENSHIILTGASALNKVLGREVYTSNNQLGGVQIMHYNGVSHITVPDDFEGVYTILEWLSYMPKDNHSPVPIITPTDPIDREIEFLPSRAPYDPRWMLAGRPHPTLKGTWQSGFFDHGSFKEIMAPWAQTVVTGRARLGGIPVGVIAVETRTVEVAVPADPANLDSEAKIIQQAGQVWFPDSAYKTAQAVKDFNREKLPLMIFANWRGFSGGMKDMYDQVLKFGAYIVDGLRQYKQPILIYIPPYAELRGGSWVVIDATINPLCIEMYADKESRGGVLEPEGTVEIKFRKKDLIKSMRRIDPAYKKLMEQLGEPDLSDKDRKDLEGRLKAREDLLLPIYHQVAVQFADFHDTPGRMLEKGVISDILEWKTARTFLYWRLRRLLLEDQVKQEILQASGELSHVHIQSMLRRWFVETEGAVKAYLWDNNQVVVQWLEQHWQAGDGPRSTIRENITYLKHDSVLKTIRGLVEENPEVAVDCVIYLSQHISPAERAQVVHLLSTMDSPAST

Row | SMILES | IC50 [1] [nM] | IC50 [2] [nM]
1 | COC1CCC2(CC1)OC(=O)C(c1c(C)ccc(-c3ccc(Cl)cc3)c1C)=C2O (stereo not drawn) [Example 2-34, 3-(4′-chloro-2,4-dimethylbiphenyl-3-yl)-4-hydroxy-8-methoxy-1-oxaspiro[4.5]dec-3-en-2-one] | 286 | 1270
2 | Cc1ccc(-c2ccc(Cl)cc2)cc1C1=C(O)C(C(C)(C)C)OC1=O (stereo not drawn) [Example 2-35, 5-tert-butyl-3-(4′-chloro-4-methylbiphenyl-3-yl)-4-hydroxyfuran-2(5H)-one] | 1020 | > 20000
3 | Cc1ccc(-c2ccc(Cl)cc2)cc1C1=C(O)C2(CCOCC2)OC1=O [Example 2-37, 3-(4′-chloro-4-methylbiphenyl-3-yl)-4-hydroxy-1,8-dioxaspiro[4.5]dec-3-en-2-one] | 342 | > 20000
4 | Cc1ccc(-c2ccc(Cl)cc2)cc1C1=C(O)C2(CCCCCC2)OC1=O [Example 2-38, 3-(4′-chloro-4-methylbiphenyl-3-yl)-4-hydroxy-1-oxaspiro[4.6]undec-3-en-2-one] | 416 | 3780
5 | COC1CCC2(CC1)OC(=O)C(c1cc(-c3ccc(Cl)cc3)ccc1C)=C2O (stereo not drawn) [Example 2-39, 3-(4′-chloro-4-methylbiphenyl-3-yl)-4-hydroxy-8-methoxy-1-oxaspiro[4.5]dec-3-en-2-one] | 216 | 3530
6 | Cc1ccc(-c2ccc(Cl)cc2)cc1C1=C(O)C(C)(C2CCCCC2)OC1=O (stereo not drawn) [Example 2-40, 3-(4′-chloro-4-methylbiphenyl-3-yl)-5-cyclohexyl-4-hydroxy-5-methylfuran-2(5H)-one] | 1220 | > 20000
7 | Cc1cc(C)c(-c2ccc(Cl)cc2)cc1C1=C(O)C2(CCOCC2)OC1=O [Example 2-41, 3-(4′-chloro-4,6-dimethylbiphenyl-3-yl)-4-hydroxy-1,8-dioxaspiro[4.5]dec-3-en-2-one] | 791 | 4220
8 | Cc1cc(C)c(-c2ccc(Cl)cc2)cc1C1=C(O)C2(CCSCC2)OC1=O [Example 2-42, 3-(4′-chloro-4,6-dimethylbiphenyl-3-yl)-4-hydroxy-1-oxa-8-thiaspiro[4.5]dec-3-en-2-one] | 357 | 1020
9 | Cc1cc(C)c(-c2ccc(Cl)cc2)cc1C1=C(O)C2(CCCCCC2)OC1=O [Example 2-43, 3-(4′-chloro-4,6-dimethylbiphenyl-3-yl)-4-hydroxy-1-oxaspiro[4.6]undec-3-en-2-one] | 504 | 330
10 | COC1CCC2(CC1)OC(=O)C(c1cc(-c3ccc(Cl)cc3)c(C)cc1C)=C2O (stereo not drawn) [Example 2-44, 3-(4′-chloro-4,6-dimethylbiphenyl-3-yl)-4-hydroxy-8-methoxy-1-oxaspiro[4.5]dec-3-en-2-one] | 297 | 160
11 | Cc1cc(C)c(-c2ccc(Cl)cc2)cc1C1=C(O)C(C)OC1=O (stereo not drawn) [Example 2-45, 3-(4′-chloro-4,6-dimethylbiphenyl-3-yl)-4-hydroxy-5-methylfuran-2(5H)-one] | 568 | 17000
12 | Cc1cc(C)c(-c2ccc(Cl)cc2)cc1C1=C(O)C2(CCCOC2)OC1=O (stereo not drawn) [Example 2-46, 3-(4′-chloro-4,6-dimethylbiphenyl-3-yl)-4-hydroxy-1,7-dioxaspiro[4.5]dec-3-en-2-one] | 580 | 7610
13 | Cc1cc(C)c(-c2ccc(Cl)cc2)c(C)c1C1=C(O)C2(CCCCCC2)OC1=O [Example 2-48, 3-(4′-chloro-2,4,6-trimethylbiphenyl-3-yl)-4-hydroxy-1-oxaspiro[4.6]undec-3-en-2-one] | 1800 | 204
14 | Cc1cc(C)c(-c2ccc(Cl)cc2)c(C)c1C1=C(O)C2(CCCC2)OC1=O [Example 2-49, 3-(4′-chloro-2,4,6-trimethylbiphenyl-3-yl)-4-hydroxy-1-oxaspiro[4.4]non-3-en-2-one] | 5780 | 1280
15 | Cc1ccc(-c2cccc(Cl)c2)cc1C1=C(O)C2(CCCCCC2)OC1=O [Example 2-50, 3-(3′-chloro-4-methylbiphenyl-3-yl)-4-hydroxy-1-oxaspiro[4.6]undec-3-en-2-one] | 903 | 8590
16 | Cc1ccc(-c2ccc(Cl)cc2)cc1C1=C(O)C2(CCCCC2)SC1=O [Example 3-2, 3-(4′-chloro-4-methylbiphenyl-3-yl)-4-hydroxy-1-thiaspiro[4.5]dec-3-en-2-one] | 97 | 1670
17 | Cc1cc(C)c(-c2ccc(Cl)cc2)cc1C1=C(O)C2(CCCCC2)SC1=O [Example 3-3, 3-(4′-chloro-4,6-dimethylbiphenyl-3-yl)-4-hydroxy-1-thiaspiro[4.5]dec-3-en-2-one] | 340 | 250
18 | Cc1cc(C)c(-c2ccc(Cl)cc2)c(C)c1C1=C(O)C2(CCCCC2)SC1=O [Example 3-4, 3-(4′-chloro-2,4,6-trimethylbiphenyl-3-yl)-4-hydroxy-1-thiaspiro[4.5]dec-3-en-2-one] | 1310 | 228

Row | SMILES | IC50 [1] [nM] | IC50 [2] [nM]
19 | Cc1ccc(-c2ccc(C)c(C3=C(O)C4(CCCCC4)CC3=O)c2)cc1 [Example 6-1, 3-(4,4′-dimethylbiphenyl-3-yl)-4-hydroxyspiro[4.5]dec-3-en-2-one] | 655 | 16000
20 | Cc1ccc(-c2ccc(Cl)cc2Cl)cc1C1=C(O)C2(CCCCC2)CC1=O [Example 6-2, 3-(2′,4′-dichloro-4-methylbiphenyl-3-yl)-4-hydroxyspiro[4.5]dec-3-en-2-one] | 337 | 1690
21 | Cc1ccc(-c2cccc(Cl)c2)cc1C1=C(O)C2(CCCCC2)CC1=O [Example 6-3, 3-(3′-chloro-4-methylbiphenyl-3-yl)-4-hydroxyspiro[4.5]dec-3-en-2-one] | 1390 | 16200
22 | Cc1ccc(-c2ccc(Cl)cc2)cc1C1=C(O)C2(CCCC2)CC1=O [Example 6-4, 3-(4′-chloro-4-methylbiphenyl-3-yl)-4-hydroxyspiro[4.4]non-3-en-2-one] | 333 | 3060
23 | CCC1CCC2(CC1)CC(=O)C(c1cc(-c3ccc(Cl)cc3)ccc1C)=C2O (stereo not drawn) [Example 6-5, 3-(4′-chloro-4-methylbiphenyl-3-yl)-8-ethyl-4-hydroxyspiro[4.5]dec-3-en-2-one] | 754 | 565
24 | CCCC1CCC2(CC1)CC(=O)C(c1cc(-c3ccc(Cl)cc3)ccc1C)=C2O (stereo not drawn) [Example 6-6, 3-(4′-chloro-4-methylbiphenyl-3-yl)-4-hydroxy-8-propylspiro[4.5]dec-3-en-2-one] | 923 | 783
25 | Cc1ccc(-c2ccc(Cl)cc2)cc1C1=C(O)C2(CCCCCC2)CC1=O [Example 6-7, 3-(4′-chloro-4-methylbiphenyl-3-yl)-4-hydroxyspiro[4.6]undec-3-en-2-one] | 467 | 654
26 | Cc1cc(C)c(-c2ccc(Cl)cc2)cc1C1=C(O)C2(CCCCC2)CC1=O [Example 6-8, 3-(4′-chloro-4,6-dimethylbiphenyl-3-yl)-4-hydroxyspiro[4.5]dec-3-en-2-one] | 1380 | 127
27 | Cc1cc(C)c(-c2ccc(Cl)cc2)c(C)c1C1=C(O)C2(CCCCC2)CC1=O [Example 6-9, 3-(4′-chloro-2,4,6-trimethylbiphenyl-3-yl)-4-hydroxyspiro[4.5]dec-3-en-2-one] | > 20000 | 387
28 | Cc1ccc(-c2ccc(Cl)cc2)cc1C1=C(O)CC(C)CC1=O (stereo not drawn) [Example 7-1, 2-(4′-chloro-4-methylbiphenyl-3-yl)-3-hydroxy-5-methylcyclohex-2-en-1-one] | 678 | > 20000
29 | Cc1ccc(-c2ccc(Cl)cc2)cc1C1=C(O)CC2(CCCCC2)CC1=O [Example 7-2, 3-(4′-chloro-4-methylbiphenyl-3-yl)-4-hydroxyspiro[5.5]undec-3-en-2-one] | 578 | > 20000
30 | Cc1cc(C)c(-c2ccc(Cl)cc2)cc1C1=C(O)CC(C)(C)CC1=O [Example 7-3, 2-(4′-chloro-4,6-dimethylbiphenyl-3-yl)-3-hydroxy-5,5-dimethylcyclohex-2-en-1-one] | 1590 | 5340
31 | Cc1cc(C)c(-c2ccc(Cl)cc2)cc1C1=C(O)C(C)(C)CCC1=O [Example 7-4, 2-(4′-chloro-4,6-dimethylbiphenyl-3-yl)-3-hydroxy-4,4-dimethylcyclohex-2-en-1-one] | 3670 | 3710
32 | Cc1ccc(-c2ccc(Cl)cc2)cc1C1=C(O)CC(C)(C)CC1=O [Example 7-5, 2-(4′-chloro-4-methylbiphenyl-3-yl)-3-hydroxy-5,5-dimethylcyclohex-2-en-1-one] | 610 | > 20000
33 | Cc1ccc(-c2ccc(F)cc2)c(C)c1C1C(=O)N2CCCCN2C1=O [Example 8-1, 2-(4′-fluoro-2,4-dimethylbiphenyl-3-yl)tetrahydro-1H-pyrazolo[1,2-a]pyridazine-1,3(2H)-dione] | 2460 | > 20000
34 | O=C1C(c2cc(-c3ccc(Cl)cc3)ccc2Cl)C(=O)N2CCCCN12 [Example 8-2, 2-(4,4′-dichlorobiphenyl-3-yl)tetrahydro-1H-pyrazolo[1,2-a]pyridazine-1,3(2H)-dione] | 891 | > 20000
35 | Cc1ccc(-c2ccc(Cl)cc2)cc1C1C(=O)N2CCCCN2C1=O [Example 8-3, 2-(4′-chloro-4-methylbiphenyl-3-yl)tetrahydro-1H-pyrazolo[1,2-a]pyridazine-1,3(2H)-dione] | 1140 | > 20000
36 | O=C1C(c2cc(-c3ccc(F)c(Cl)c3)ccc2Cl)C(=O)N2CCCCN12 [Example 8-4, 2-(3′,4-dichloro-4′-fluorobiphenyl-3-yl)tetrahydro-1H-pyrazolo[1,2-a]pyridazine-1,3(2H)-dione] | 3180 | > 20000
